In patent US20210038607A1, “OXADIAZOLYLTHIOPHENE DERIVATIVES USEFUL AS HISTONE DEACETYLASE INHIBITORS” (Karus Therapeutics Limited, priority 2018, published 2021):

Experiments:
[1] = system: acetylated α-tubulin in A549 lung adenocarcinoma cells; test: Acetylated α-tubulin in-cell western (ICW) assay; assay type: cell-based; conditions: Homo sapiens, 16 h exposure, relative to 40 μM scriptaid positive control, read-out: EC50 Ac-α-tubulin, A549 cells
Method: (§1) Acetylated α-Tubulin and Histone H3 in-Cell Western (ICW) Assays
(§2) A549 cells were maintained in DMEM (Life Technologies)+10% FBS+2 mM glutamine & penicillin (10 μg/mL) and streptomycin ([…]. 10,000 A549 cells per well were plated into 96 well tissue culture plates (Corning) and incubated at 37° C. overnight in a humidified atmosphere containing 5% CO2 prior to addition of compounds. Compounds (dissolved in 100% DMSO) were diluted into cell culture media at 2× final assay concentration. 2× compound or DMSO (negative control) were added to cells (final DMSO concentration 0.4%). Untreated control wells received media. For acetylated α-tubulin assays, 40 μM scriptaid was used as a positive control. For acetylated histone H3 assays, 40 μM Trichostatin A (TSA) was used as a positive control. Cells were exposed to compound at 37° C. in a humidified atmosphere containing 5% CO2 for 16 h.
(§3) Measurement of the impact of compounds on levels of acetylated α-tubulin and histone H3 was performed using specific antibodies and near-infrared immunofluorescent dyes. Briefly, media was removed from wells of assay plates. Cells were washed once with PBS and fixed in 3.7% formaldehyde PBS solution at room temperature for 20 min. Cells were then permeabilised by washing 5 times in 0.1% triton-X-100 PBS at room temperature with gentle agitation for 5 min per wash. Non-specific antibody staining was blocked by the addition of Odyssey blocking buffer (Li-Cor) for 1.5 h at room temperature with gentle agitation. Cells were then incubated with primary antibody (mouse monoclonal anti-acetylated α-tubulin (clone 6-11B-1), Sigma or rabbit polyclonal anti-acetylated histone H3, Millipore) diluted in Odyssey blocking buffer at 4° C. with gentle shaking overnight (no antibody control and secondary antibody only wells were incubated with Odyssey blocking buffer only). Cells were washed five times with 0.1% tween PBS and labelled with secondary antibody (IR dye 800CW-conjugated goat anti mouse IgG or -goat anti rabbit IgG, Li-Cor) and cell stains Sapphire700 (Li-Cor) and Draq5 (Biostatus) diluted in Odyssey blocking buffer at room temperature in the dark with gentle shaking for 1 h (no antibody control wells were incubated with Odyssey blocking buffer only and secondary antibody only with diluted secondary antibody but no cell stains). Cells were washed with 0.1% Tween PBS five times and scanned using a Li-Cor Odyssey SA plate reader in 700 and 800 nm channels. Acetylated α-tubulin or histone H3 signal was normalised to cell number using the cell stain signal. Percentage increase in acetylated α-tubulin or histone H3 after compound treatment over the mean of DMSO treated controls, relative to scriptaid and TSA positive controls, respectively was calculated. EC50 values were calculated using GraphPad Prism software and nonlinear regression with 0% bottom and 100% top constraints.

[2] = system: acetylated histone H3 in A549 lung adenocarcinoma cells; test: Acetylated histone H3 in-cell western (ICW) assay; assay type: cell-based; conditions: Homo sapiens, 16 h exposure, relative to 40 μM Trichostatin A positive control, read-out: EC50 Ac-histone H3, A549 cells
Method: as §1, §2, §3

Q: What does the source list for FC(F)(F)c1cnnc(N(Cc2ccc(-c3noc(C(F)(F)F)n3)s2)c2cc(C(F)(F)F)cnn2)c1 [Example EU, 5-(Trifluoromethyl)-N-({5-[5-(trifluoromethyl)-1,2,4-oxadiazol-3-yl]thiophen-2-yl}methyl)-N-[5-(trifluoromethyl)pyridazin-3-yl]pyridazin-3-amine]?
A: EC50 [1]: ≤ 1 µM; EC50 [2]: ≥ 10 µM

Q: With NC(=O)c1cnnc(N(Cc2ccc(-c3noc(C(F)(F)F)n3)s2)c2cnccn2)c1 [Example DX, 6-[(Pyrazin-2-yl)({5-[5-(trifluoromethyl)-1,2,4-oxadiazol-3-yl]thiophen-2-yl}methyl)amino]pyridazine-4-carboxamide] as the compound, how does the EC50 [1] read?
A: ≤ 1 µM

Q: What about the EC50 [2] of the same compound?
A: ≥ 10 µM

Q: Which results are given for O=C(c1cnnc(N(Cc2ccc(-c3noc(C(F)(F)F)n3)s2)c2cnccn2)c1)N1CCC12COC2 [Example GF, 5-{6-Oxa-1-azaspiro[3.3]heptane-1-carbonyl}-N-(pyrazin-2-yl)-N-({5-[5-(trifluoromethyl)-1,2,4-oxadiazol-3-yl]thiophen-2-yl}methyl)pyridazin-3-amine]?
A: EC50 [1]: ≤ 1 µM; EC50 [2]: ≥ 10 µM

Q: What does the source list for CNC(=O)c1cnnc(N(Cc2ccc(-c3noc(C(F)(F)F)n3)s2)c2cnccn2)c1 [Example DY, N-Methyl-6-[(pyrazin-2-yl)({5-[5-(trifluoromethyl)-1,2,4-oxadiazol-3-yl]thiophen-2-yl}methyl)amino]pyridazine-4-carboxamide]?
A: EC50 [1]: ≤ 1 µM; EC50 [2]: ≥ 10 µM

Q: COC1CN(Cc2ccnc(N(Cc3ccc(-c4noc(C(F)(F)F)n4)s3)c3cnccn3)c2)C1 [Example GH, N-{4-[(3-Methoxyazetidin-1-yl)methyl]pyridin-2-yl}-N-({5-[5-(trifluoromethyl)-1,2,4-oxadiazol-3-yl]thiophen-2-yl}methyl)pyrazin-2-amine] was tested. Which EC50 [1] did it give?
A: ≤ 1 µM

Q: What about the EC50 [2] of the same compound?
A: ≥ 10 µM

Q: Which EC50 [1] does the source give for COC1CN(C(=O)c2ccc(N(Cc3ccc(-c4noc(C(F)(F)F)n4)s3)c3cnccn3)nn2)C1 [Example DR, 6-(3-Methoxyazetidine-1-carbonyl)-N-(pyrazin-2-yl)-N-({5-[5-(trifluoromethyl)-1,2,4-oxadiazol-3-yl]thiophen-2-yl}methyl)pyridazin-3-amine] here?
A: ≤ 1 µM

Q: And the EC50 [2]?
A: ≥ 10 µM

Q: Which results are given for O=C(c1ccc(N(Cc2ccc(-c3noc(C(F)(F)F)n3)s2)c2cnccn2)nn1)N1CCC2(COC2)C1 [Example FJ, 6-{2-Oxa-6-azaspiro[3.4]octane-6-carbonyl}-N-(pyrazin-2-yl)-N-({5-[5-(trifluoromethyl)-1,2,4-oxadiazol-3-yl]thiophen-2-yl}methyl)pyridazin-3-amine]?
A: EC50 [1]: ≤ 1 µM; EC50 [2]: ≥ 10 µM

Q: With FC(F)(F)c1nc(-c2ccc(CN(c3cnccn3)c3cc(CN4CCOCC4)ccn3)s2)no1 [Example GI, N-{4-[(Morpholin-4-yl)methyl]pyridin-2-yl}-N-({5-[5-(trifluoromethyl)-1,2,4-oxadiazol-3-yl]thiophen-2-yl}methyl)pyrazin-2-amine] as the compound, how does the EC50 [1] read?
A: ≤ 1 µM

Q: What about the EC50 [2] of the same compound?
A: ≥ 10 µM

Q: Which EC50 [1] does the source give for N#Cc1cnnc(N(Cc2ccc(-c3noc(C(F)(F)F)n3)s2)c2cnccn2)c1 [Example EE, 6-[(Pyrazin-2-yl)({5-[5-(trifluoromethyl)-1,2,4-oxadiazol-3-yl]thiophen-2-yl}methyl)amino]pyridazine-4-carbonitrile] here?
A: ≤ 1 µM

Q: And the EC50 [2]?
A: ≥ 10 µM

Q: With O=C(c1ccc(N(Cc2ccc(-c3noc(C(F)(F)F)n3)s2)c2cnccn2)nn1)N1CCOCC1 [Example DS, 6-(Morpholine-4-carbonyl)-N-(pyrazin-2-yl)-N-({5-[5-(trifluoromethyl)-1,2,4-oxadiazol-3-yl]thiophen-2-yl}methyl)pyridazin-3-amine] as the compound, how does the EC50 [1] read?
A: ≤ 1 µM

Q: What about the EC50 [2] of the same compound?
A: ≥ 10 µM

Q: How did the EC50 [1] turn out when O=C(O)c1cnnc(N(Cc2ccc(-c3noc(C(F)(F)F)n3)s2)c2cc(C(F)(F)F)cnn2)c1 [Example ES, 6-[({5-[5-(Trifluoromethyl)-1,2,4-oxadiazol-3-yl]thiophen-2-yl}methyl)[5-(trifluoromethyl)pyridazin-3-yl]amino]pyridazine-4-carboxylicacid] was run?
A: ≥ 10 µM

Q: What about the EC50 [2] of the same compound?
A: ≥ 10 µM

Q: With FC(F)(F)c1cnnc(N(Cc2ccc(-c3noc(C(F)(F)F)n3)s2)c2cccnn2)c1 [Example ER, N-(Pyridazin-3-yl)-5-(trifluoromethyl)-N-({5-[5-(trifluoromethyl)-1,2,4-oxadiazol-3-yl]thiophen-2-yl}methyl)pyridazin-3-amine] as the compound, how does the EC50 [1] read?
A: ≥ 10 µM

Q: And the EC50 [2]?
A: ≥ 10 µM

Q: What does the source list for O=C(c1cnnc(N(Cc2ccc(-c3noc(C(F)(F)F)n3)s2)c2cnccn2)c1)N1CC(C(F)F)C1 [Example GK, 5-[3-(Difluoromethyl)azetidine-1-carbonyl]-N-(pyrazin-2-yl)-N-({5-[5-(trifluoromethyl)-1,2,4-oxadiazol-3-yl]thiophen-2-yl}methyl)pyridazin-3-amine]?
A: EC50 [1]: ≤ 1 µM; EC50 [2]: ≥ 10 µM

Q: Which EC50 [1] does the source give for CNC(=O)c1ccc(N(Cc2ccc(-c3noc(C(F)(F)F)n3)s2)c2cnccn2)nn1 [Example FC, N-Methyl-6-[(pyrazin-2-yl)({5-[5-(trifluoromethyl)-1,2,4-oxadiazol-3-yl]thiophen-2-yl}methyl)amino]pyridazine-3-carboxamide] here?
A: ≤ 1 µM

Q: What about the EC50 [2] of the same compound?
A: ≥ 10 µM

Q: For CN(C)C1CN(C(=O)c2cnnc(N(Cc3ccc(-c4noc(C(F)(F)F)n4)s3)c3cnccn3)c2)C1 [Example FX, 5-[3-(Dimethylamino)azetidine-1-carbonyl]-N-(pyrazin-2-yl)-N-({5-[5-(trifluoromethyl)-1,2,4-oxadiazol-3-yl]thiophen-2-yl}methyl)pyridazin-3-amine], which EC50 [1] is on record?
A: ≤ 1 µM

Q: What about the EC50 [2] of the same compound?
A: ≥ 10 µM

Q: What does the source list for FC(F)(F)c1nc(-c2ccc(CN(c3cnccn3)c3cnccn3)s2)no1 [Example BA, N-(Pyrazin-2-yl)-N-({5-[5-(trifluoromethyl)-1,2,4-oxadiazol-3-yl]thiophen-2-yl}methyl)pyrazin-2-amine]?
A: EC50 [1]: ≤ 1 µM; EC50 [2]: ≥ 10 µM

Q: With O=C(c1ccc(N(Cc2ccc(-c3noc(C(F)(F)F)n3)s2)c2cnccn2)nn1)N1CCC1 [Example FF, 6-(Azetidine-1-carbonyl)-N-(pyrazin-2-yl)-N-({5-[5-(trifluoromethyl)-1,2,4-oxadiazol-3-yl]thiophen-2-yl}methyl)pyridazin-3-amine] as the compound, how does the EC50 [1] read?
A: ≤ 1 µM

Q: And the EC50 [2]?
A: ≥ 10 µM

Q: How did the EC50 [1] turn out when O=C(c1cnnc(N(Cc2ccc(-c3noc(C(F)(F)F)n3)s2)c2cnccn2)c1)N1CCC1 [Example FS, 5-(Azetidine-1-carbonyl)-N-(pyrazin-2-yl)-N-({5-[5-(trifluoromethyl)-1,2,4-oxadiazol-3-yl]thiophen-2-yl}methyl)pyridazin-3-amine] was run?
A: ≤ 1 µM

Q: And the EC50 [2]?
A: ≥ 10 µM

Q: O=C(O)c1cnnc(N(Cc2ccc(-c3noc(C(F)(F)F)n3)s2)c2cnccn2)c1 [Example DW, 6-[(Pyrazin-2-yl)({5-[5-(trifluoromethyl)-1,2,4-oxadiazol-3-yl]thiophen-2-yl}methyl)amino]pyridazine-4-carboxylic acid] was tested. Which EC50 [1] did it give?
A: ≥ 10 µM

Q: And the EC50 [2]?
A: ≥ 10 µM

Q: How did the EC50 [1] turn out when NC(=O)c1ccc(N(Cc2ccc(-c3noc(C(F)(F)F)n3)s2)c2cnccn2)nn1 [Example DQ, 6-[(Pyrazin-2-yl)({5-[5-(trifluoromethyl)-1,2,4-oxadiazol-3-yl]thiophen-2-yl}methyl)amino]pyridazine-3-carboxamide] was run?
A: ≤ 1 µM

Q: And the EC50 [2]?
A: ≥ 10 µM

Q: How did the EC50 [1] turn out when O=C(c1ccc(N(Cc2ccc(-c3noc(C(F)(F)F)n3)s2)c2cnccn2)nn1)N1CC[S+]([O-])CC1 [Example FD, 4-{6-[(Pyrazin-2-yl)({5-[5-(trifluoromethyl)-1,2,4-oxadiazol-3-yl]thiophen-2-yl}methyl)amino]pyridazine-3-carbonyl}-1lambda4-thiomorpholin-1-one] was run?
A: ≤ 1 µM

Q: And the EC50 [2]?
A: ≥ 10 µM

Q: Which EC50 [1] does the source give for O=C(c1ccc(N(Cc2ccc(-c3noc(C(F)(F)F)n3)s2)c2cnccn2)nn1)N1CCC12COC2 [Example FH, 6-{6-Oxa-1-azaspiro[3.3]heptane-1-carbonyl}-N-(pyrazin-2-yl)-N-({5-[5-(trifluoromethyl)-1,2,4-oxadiazol-3-yl]thiophen-2-yl}methyl)pyridazin-3-amine] here?
A: ≤ 1 µM

Q: What about the EC50 [2] of the same compound?
A: ≥ 10 µM

Q: What does the source list for O=C(c1cnnc(N(Cc2ccc(-c3noc(C(F)(F)F)n3)s2)c2cnccn2)c1)N1CCOCC1 [Example EB, 5-(Morpholine-4-carbonyl)-N-(pyrazin-2-yl)-N-({5-[5-(trifluoromethyl)-1,2,4-oxadiazol-3-yl]thiophen-2-yl}methyl)pyridazin-3-amine]?
A: EC50 [1]: ≤ 1 µM; EC50 [2]: ≥ 10 µM
